Molecular target: T1, βCat-BCL9 (beta-Catenin/BCL9-BCL9L interaction) (Homo sapiens, UniProt P35222)
T1 sequence (P35222 1-781): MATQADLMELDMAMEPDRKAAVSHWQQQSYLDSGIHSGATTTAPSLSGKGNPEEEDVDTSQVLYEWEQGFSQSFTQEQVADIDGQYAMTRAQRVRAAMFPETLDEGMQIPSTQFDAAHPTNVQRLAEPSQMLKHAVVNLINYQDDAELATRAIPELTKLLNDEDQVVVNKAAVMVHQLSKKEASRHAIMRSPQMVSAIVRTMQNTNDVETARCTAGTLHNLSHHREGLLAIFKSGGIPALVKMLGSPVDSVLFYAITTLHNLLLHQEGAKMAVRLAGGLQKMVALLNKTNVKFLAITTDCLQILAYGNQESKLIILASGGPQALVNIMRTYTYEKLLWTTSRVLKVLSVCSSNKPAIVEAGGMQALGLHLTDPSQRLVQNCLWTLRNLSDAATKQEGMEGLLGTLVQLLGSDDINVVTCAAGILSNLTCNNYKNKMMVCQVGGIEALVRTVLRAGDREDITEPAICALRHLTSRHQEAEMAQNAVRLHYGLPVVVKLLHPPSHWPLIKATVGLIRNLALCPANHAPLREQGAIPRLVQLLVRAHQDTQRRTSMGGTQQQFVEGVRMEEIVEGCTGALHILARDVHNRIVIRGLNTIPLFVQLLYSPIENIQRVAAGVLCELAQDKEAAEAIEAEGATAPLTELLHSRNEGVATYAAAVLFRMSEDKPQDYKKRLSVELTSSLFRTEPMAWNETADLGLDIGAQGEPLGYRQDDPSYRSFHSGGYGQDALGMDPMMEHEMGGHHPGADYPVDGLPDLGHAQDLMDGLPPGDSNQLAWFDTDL
Assay: ELISA based protein-protein interaction assay, βCat-BCL9
Type: binding
Conditions: Example 1
From the text: cDNAs including the binding domains of Lgs and beta-Catenin were fused down-stream of glutathione-S-transferase (GST) cDNA in pGEX-4T inducible bacterial expression vector (Pharmacia). Similar recombinant DNA constructs were generated in the pET-32a(+) vector (Novagen) for expression of fusion protein containing the Thioredoxine-6His tag at their N-terminus. Fusion proteins were produced in BL21 bacteria (e.g. Stratagene) following manufacturer's recommendation.
To isolate the produced fusions protein, bacteria were ground in aluminum oxide (Sigma, A2039) and the resulting powder extracted in lysis buffer (140 mM NaCl, 10 mM Na2HPO4, 1.8 mM KH2PO4, 2.7 mM KCl, 1 mM EDTA, 1% Triton-X-100, 1 mM DTT and protease inhibitors) under rotation for 30 minutes. Supernatants were cleared by centrifugation then filtered on a 0.45 μm membrane before protein purification. For GST tagged protein, lysate were processed on glutathione agarose beads following manufacturer's recommendation (Amersham Pharmacia) and purified proteins eluted in 50 mM Tris-Cl, 10 mM reduced glutathione pH8.0. For thioredoxine-6His fusions, tagged proteins were purified from the lysate on a nickel chelating column (e.g. Hitrap chelating, G.E. Healthcare) using an HPLC system (e.g. Akta Prime, G.E. Healthcare) and eluted under increasing concentration of imidazole. The purified proteins solution was dialyzed against PBS before use. The quality of the preparations was checked by SDS-gel electrophoresis by standard methods well known by persons skilled in the art.
Compound preparation: Compounds can be prepared as 25 mM stock in DMSO and diluted in DMSO to reach final test concentrations of up to 100 μM. Final DMSO concentration in the assay is 5%.
100 μl of GST fusion protein (e.g. GST-βCatenin) diluted to the appropriate concentration in phosphate buffer saline are added per well to a 96 well plate with high protein binding capacity (e.g. Nunc Maxisorp) and placed at 4° C. overnight. The following day the liquid in the wells is discarded and 150 μl 3% bovine serum albumin (BSA) in PBS are added to each well and incubated at room temperature for 2 hours under moderate shaking. This solution is then discarded and each well washed twice with 200 μl PBS. After carefully discarding the second wash, a mixture of 5 μl compound dilution and 95 μl 6His fusion protein (e.g. 6His-Bcl9) diluted to the appropriate concentration in PBS is added to each well. The plate is then incubated for 1 hour at room temperature under moderate shaking. This protein solution is then discarded and the wells washed 3 times with 200 μl 0.1% Tween-20 solution in PBS. After carefully discarding the final wash, 100 μl of anti 6His antibody conjugated to the horse-radish peroxidase (e.g. Roche antibody 11965085001) at the appropriate dilution in 1% BSA in PBS is added to the wells and the plate incubated for 1 hour at room temperature under moderate shaking. This solution is then discarded and the wells washed 3 times with 200 μl 0.1% Tween-20 solution in PBS. After carefully discarding the final wash, 100 μl of HRP substrate […] (TMB) in solution (e.g. Sigma T0440) is added to the wells and the plate incubated up to 30 minutes in the dark at room temperature. The reaction is stopped by addition of 100 μl of 2N HCl to each well and the optical density is measured at 450 nm and 630 nm.

SMILES	IC50
Cc1cc(NC(=O)c2ccc(C(=O)Nc3cc(C)on3)nc2)no1 [TG00011289]	> 50 µM
COc1cc(-c2ccc(NC(=O)c3cc(-c4ccc(C)o4)nc4ccccc34)c(OC)c2)ccc1NC(=O)c1cc(-c2ccc(C)o2)nc2ccccc12 [TGC0000161]	> 50 µM
O=C(Nc1cc(C(F)(F)F)ccc1Cl)c1ccc(C(=O)Nc2cc(C(F)(F)F)ccc2Cl)nc1 [TGC0011278]	> 100 µM
CC(=O)Nc1cccc(NC(=O)c2ccc(C(=O)Nc3cccc(NC(C)=O)c3)nc2)c1 [TGC0011279]	> 100 µM
CCN(CC)c1ccc(NC(=O)c2ccc(C(=O)Nc3ccc(N(CC)CC)cc3)nc2)cc1 [TGC0011281]	> 100 µM
COc1ccc(Cl)cc1NC(=O)c1ccc(C(=O)Nc2cc(Cl)ccc2OC)nc1 [TGC0011282]	> 100 µM
CC(C)NC(=O)c1ccc(C(=O)NC(C)C)nc1 [TGC0011283]	> 100 µM
O=C(NCc1ccccc1)c1ccc(C(=O)NCc2ccccc2)nc1 [TGC0011284]	> 100 µM
O=C(Nc1ccccc1)c1ccc(C(=O)Nc2ccccc2)nc1 [TGC0011286]	> 100 µM
O=C(Nc1ccc(F)c(Cl)c1)c1ccc(C(=O)Nc2ccc(F)c(Cl)c2)nc1 [TGC0011287]	> 100 µM
O=C(NCc1ccc(F)cc1)c1ccc(C(=O)NCc2ccc(F)cc2)nc1 [TGC0011337]	> 10 µM
CC(=O)c1cccc(NC(=O)c2ccc(C(=O)Nc3cccc(C(C)=O)c3)nc2)c1 [TGC0011338]	> 10 µM
O=C(NCc1ccc(Cl)cc1)c1ccc(C(=O)NCc2ccc(Cl)cc2)nc1 [TGC0011339]	> 10 µM
O=C(NCCc1cccc(Cl)c1)c1ccc(C(=O)NCCc2cccc(Cl)c2)nc1 [TGC0011340]	> 20 µM
Cc1cc(I)ccc1NC(=O)c1ccc(C(=O)Nc2ccc(I)cc2C)nc1 [TGC0011341]	> 10 µM
CC(C)(C)C1CCc2c(sc(NC(=O)c3ccc(C(=O)Nc4sc5c(c4C#N)CCC(C(C)(C)C)C5)nc3)c2C#N)C1 (stereo not shown) [TGC0011343]	> 100 µM
O=C(NCC1CCCO1)c1ccc(C(=O)NCC2CCCO2)nc1 (stereo not shown) [TGC0011424]	> 50 µM

SMILES	IC50
O=C(c1ccc(C(=O)N2CCCc3ccccc32)nc1)N1CCCc2ccccc21 [TGC0011425]	> 25 µM
O=C(c1ccc(C(=O)N2CCOCC2)nc1)N1CCOCC1 [TGC0011426]	> 50 µM
COc1ccc(CNC(=O)c2ccc(C(=O)NCc3ccc(OC)cc3)nc2)cc1 [TGC0011427]	> 25 µM
O=C(c1ccc(C(=O)N2CCC(Cc3ccccc3)CC2)nc1)N1CCC(Cc2ccccc2)CC1 [TGC0011429]	> 25 µM
O=C(Nc1ccc2c(c1)OCO2)c1ccc(C(=O)Nc2ccc3c(c2)OCO3)nc1 [TGC0011431]	> 50 µM
CCCCc1ccc(NC(=O)c2ccc(C(=O)Nc3ccc(CCCC)cc3)nc2)cc1 [TGC0011433]	> 50 µM
O=C(NCCC1=CCCCC1)c1ccc(C(=O)NCCC2=CCCCC2)nc1 [TGC0011435]	> 50 µM
CC(CCc1ccccc1)NC(=O)c1ccc(C(=O)NC(C)CCc2ccccc2)nc1 (stereo not shown) [TGC0011436]	> 10 µM
CCC(C)NC(=O)c1ccc(C(=O)NC(C)CC)nc1 (stereo not shown) [TGC0011437]	> 50 µM
COc1ccccc1CCNC(=O)c1ccc(C(=O)NCCc2ccccc2OC)nc1 [TGC0011445]	> 10 µM
COc1cccc(CCNC(=O)c2ccc(C(=O)NCCc3cccc(OC)c3)nc2)c1 [TGC0011446]	> 10 µM
O=C(NCCc1ccc(F)cc1)c1ccc(C(=O)NCCc2ccc(F)cc2)nc1 [TGC0011447]	> 50 µM
O=C(NCCc1ccc2c(c1)OCO2)c1ccc(C(=O)NCCc2ccc3c(c2)OCO3)nc1 [TGC0011448]	> 10 µM
O=C(NCCc1cccc(C(F)(F)F)c1)c1ccc(C(=O)NCCc2cccc(C(F)(F)F)c2)nc1 [TGC0011452]	> 10 µM
O=C(NCCc1ccccc1OC(F)(F)F)c1ccc(C(=O)NCCc2ccccc2OC(F)(F)F)nc1 [TGC0011454]	> 100 µM
O=C(NCCc1ccccn1)c1ccc(C(=O)NCCc2ccccn2)nc1 [TGC0011455]	> 100 µM
COc1cccc(CCNC(=O)c2ccc(C(=O)NCCc3cccc(OC)c3OC)nc2)c1OC [TGC0011456]	> 100 µM

From patent publication US20100204219A1, “AROMATIC 1,4-DI-CARBOXYLAMIDES AND THEIR USE” (priority 2006, published 2010)
